The values below are quoted from earlier work in patent publication US6436435B1, “Liposome formulation of 5 β steroids” (Super Gen, Inc., priority 1995, dated 2002).

For data set [1], the system named is individuals suffering from Prader-Willi Syndrome. The following applies: in vivo.
The test system of data set [2] is C57BL/KsJ-db/db diabetic mice. The following applies: for effectiveness in preventing development of diabetes relative to DHEA: C57BL/KsJ-db/db diabetic mice; for blood sugar / plasma insulin concentrations: mouse, in vivo.
In data set [3] the test system is diabetic genetically obese mice. As to conditions: supplied in the diet.
For the next data set, the system named is obese mice. The following applies: injected im, ip or iv / parenteral.
The next data set concerns genetically obese mice. The following applies: variety of routes.
In data set [4] the test system is genetically obese and diabetic mice. As to conditions: maximal benefit when ingested.
Data set [5] has as its system severely diabetic mammals. As to conditions: oral administration.
In data set [6] the test system is congenitally obese mice carrying the ob ob mutation.

`C[C@]12CCC(=O)C[C@H]1CC[C@@H]1[C@@H]2CC[C@]2(C)C(=O)CC[C@@H]12` [ED, 5β-androstane-3,17-dione]: the “body weight in Prader-Willi Syndrome” value in data set [1] was “either weight loss or a decrease in the rate of weight gain”. In addition, where the note is “oral ED four grams per day”, the “subjective or objective side effects” value was “no significant subjective or objective side effects” and the “weight loss per week per 100 kilograms of body fat” value is 0.5±0.91 kilograms per week per 100 kilograms of body fat. Further, the “mean weight loss during ED administration” value (oral ED four grams per day, 10 week period, 14 obese subjects) is given as 2.8±5.5 kilograms. Moreover, the “mean fat loss, of the initial body fat content” value (over the 10 week period of ED administration) was “about 5%”.

In the case of `C[C@]12CC[C@H](O)C[C@@H]1CC[C@@H]1[C@@H]2CC[C@]2(C)C(=O)CC[C@@H]12` [epiandrosterone], the “effectiveness in preventing development of diabetes relative to DHEA” value (“effectiveness … of diabetes relative to DHEA” below) in [2] is “not”.

Regarding `C[C@]12CC[C@@H](O)C[C@H]1CC[C@@H]1[C@@H]2CC[C@]2(C)C(=O)CC[C@@H]12` [α ET, 3α-hydroxy-5β-androstane-17-one], in data set [2], the “effectiveness … of diabetes relative to DHEA” value is given as “four times more effective than DHEA”, the blood sugar entry is “reduce blood sugar” and the plasma insulin concentrations result was “increased plasma insulin concentrations”. The anti-obesity properties result in data set [3] was “can prevent and arrest the development of obesity”. In the data set on obese mice, the “anti-obesity effect, injected” value was “does not exert an anti-obesity effect”.

Take `C[C@]12CC[C@@H](O)C[C@H]1CC[C@@H]1[C@@H]2CC[C@]2(C)C(=O)CC[C@@H]12` [etiocholanolone]: the “body weight in Prader-Willi Syndrome” value in data set [1] is recorded as “either weight loss or a decrease in the rate of weight gain”.

As for `C[C@]12CC[C@@H](O)C[C@@H]1CC[C@@H]1[C@@H]2CC[C@]2(C)C(=O)CC[C@@H]12` [androsterone], in [2], the “effectiveness … of diabetes relative to DHEA” value is “not”.

For the molecule `C[C@]12CC[C@H](O)C[C@H]1CC[C@@H]1[C@@H]2CC[C@]2(C)C(=O)CC[C@@H]12` [β ET, 3β-hydroxy-5β-androstane-17-one], in [2], the “effectiveness … of diabetes relative to DHEA” value was “four times more effective than DHEA”, the blood sugar result is recorded as “reduce blood sugar” and the plasma insulin concentrations result is “increased plasma insulin concentrations”. For the same molecule, the anti-obesity properties entry in [3] was “can prevent and arrest the development of obesity”. Besides, in the data set with obese mice, the “anti-obesity effect, injected” value is reported as “does not exert an anti-obesity effect”.

With `C[C@]12CC[C@H](O)CC1=CC[C@@H]1[C@@H]2CC[C@]2(C)C(=O)CC[C@@H]12` [DHEA, 3-β-hydroxy-androst-5-en-17-one], in the data set with genetically obese mice, the “rate of weight gain” value is “decreased the rate of weight gain”. Further, the development of diabetes entry in data set [4] was “markedly reduced the development of diabetes”. Also, in data set [5], the glucose tolerance entry is “improved glucose tolerance” and the hyperglycemia entry is “restored hyperglycemia to normal levels”.

B1: OB protein: protein product of the recombinant gene ob in mice and its human homologue (protein, UniProt P41160 22-167, looked up)
Leptin: VPIQKVQDDTKTLIKTIVTRINDISHTQSVSAKQRVTGLDFIPGLHPILSLSKMDQTLAVYQQVLTSLPSQNVLQIANDLENLRDLLHLLAFSKSCSLPQTSGLQKPESLDGVLEASLYSTEVVALSRLQGSLQDILQQLDVSPEC
B1: the “serum insulin and glucose levels” value in [6] (highest dose tested, 10 mg/kg per day) is recorded as “normalized to the level typically seen in the non-mutant mice”. Moreover, the body weight effect result in [6] (parenteral administration) is “weight reducing effects”.
